From US12247032B2, “Substituted pyrazolo[1,5-a]pyrimidines as inhibitors of JAK kinases” (Genentech, Inc., priority 2019, dated 2025)

Legend:
[1] = system: JAK1 (IL-13-stimulated STAT6 phosphorylation in BEAS-2B cells); assay: P-STAT6 BEAS-2B+IL-13 cell assay; type: cell-based, human; settings: Homo sapiens, BEAS-2B, 1 h, 1 hour compound, IL-13 15 minutes, IC50 by four-parameter fit, read-out: Cellular JAK1 PSTAT6 BEAS2B + IL13
In short: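 BEAS-2B human bronchial epithelial cells preincubated 1 h at 37 °C with compound, then stimulated with human recombinant IL-13 for 15 min. Phospho-STAT6 (Tyr641) in lysates measured by MSD electrochemiluminescence immunoassay; IC50 from a four-parameter logistic fit of percent of control.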

[2] = system: JAK2 pathway (P-STAT5 in TF-1 human erythroleukemia cells + EPO); assay: P-STAT5 TF-1+Erythropoietin (EPO) assay; type: cell-based; settings: Homo sapiens, TF-1, 0.5 h, TF-1 cells, 30 minutes compound, EPO 30 min; IC50 by four-parameter fit; read-out: Cellular (JAK2 PSTAT5 TF1 + EPO)
Protocol: TF-1 human erythroleukemia cells (ATCC®; Manassas, VA; Catalog No. CRL-2003™) were grown in Roswell Park Memorial Institute (RPMI) medium supplemented with 10% heat-inactivated fetal bovine serum (FBS), 2 ng/mL granulocyte-macrophage colony-stimulating factor, 1× non-essential amino acids (NEAA), and 1 mM sodium pyruvate. The day before the assay, the cultures were transferred to Opti-MEM™, 1×NEAA, 1 mM sodium pyruvate, and 0.5% charcoal-stripped FBS (starve medium). Inhibitor stock solutions (5 mM in DMSO) were serially diluted 1:2 in DMSO to generate a 10-point concentration titration (at 500× test concentration), which was further diluted by a 50-fold dilution in Assay Medium (RPMI containing 1×NEAA and 1 mM sodium pyruvate) to generate a 10× concentration titration (in 2% DMSO). The cells (300,000 cells/well in 35 μL of Assay Medium) were seeded in 384-well Greiner plates. Diluted inhibitor at 10× concentration (5 μL) was added to the cells and the plates were incubated for 30 minutes at 37° C. in a humidified incubator. Cells were stimulated with the human recombinant cytokine at the respective EC90 concentrations, as previously determined for each individual lot. For the phosphorylated signal transducer and activator of transcription 6 (P-STAT6) TF-1+Interleukin-13 (IL-13) assay, 10 μL of 250 ng/mL IL-13 (R&D Systems; Minneapolis, MN) was added to the cells, which were then incubated for 10 minutes at 37° C. For the P-STAT5 TF-1+Erythropoietin (EPO) assay, 10 μL of 110 IU/mL EPO (Gibco Life Technologies, Catalog No. PHC2054) was added to the cells, which were then incubated for 30 min at 37° C. For both assays, the incubation was followed by addition to the cells of 5 μL of ice-cold 10× cell lysis buffer (Cell Signaling Technologies; Danvers, MA; Catalog No. 9803S) containing 1 mM phenylmethylsulfonyl fluoride (PMSF). Assay plates were frozen at −80° C. for a minimum of 1 hour. In the IL-13 assay, P-STAT6 was measured by coating goat anti-rabbit (GAR) plates (Meso Scale Discovery [MSD]; Rockville, MD; Catalog No. MSD L21RA-1) with rabbit anti-human total STAT6 antibody (Cell Signaling Technologies; Catalog No. 9362S), incubating the cell lysates in the coated plates overnight at 4° C., and then detecting with mouse anti-P-STAT6 (Tyr641) Clone 16E12 antibody (MilliporeSigma; Burlington, MA; Catalog No. 05-590, custom labeled by MSD with SULFO-tag) using standard MSD plate processing, washing, and detection protocols. In the EPO assay, P-STAT5 was detected using the phospho-STAT5a,b Whole Cell Lysate Kit (MSD; Catalog No. K150IGD-1). The electrochemiluminescence (ECL) signal of wells was read on the MESO SECTOR S600 (MSD) reader.
Data analysis was performed by subtracting the negative control (cytokine stimulated and 20 μM control inhibitor-treated cells) mean ECL value from the ECL value of all wells, determining percent of control for test compound well ECL values relative to the positive control (cytokine stimulated and DMSO-treated cells) mean ECL value, and determining the IC50 for test compounds with a four-parameter logistic fit model as shown in Equation 4.

CN1CC(n2nnc(Cn3cc(NC(=O)c4cnn5cccnc45)c(-c4cc(Cl)ccc4OC(F)F)n3)n2)C1 [Example 7, N-[3-[5-chloro-2-(difluoromethoxy)phenyl]-1-[[2-(1-methylazetidin-3-yl)tetrazol-5-yl]methyl]pyrazol-4-yl]pyrazolo[1,5-a]pyrimidine-3-carboxamide]
IC50 [1]: 9.8 nM
IC50 [2]: 13 nM

CN1CC(N2CC(n3nnc(Cn4cc(NC(=O)c5cnn6cccnc56)c(-c5cc(OC(F)F)ccc5OC(F)F)n4)n3)C2)C1 [Example 78, N-[3-[2,5-bis(difluoromethoxy)phenyl]-1-[[2-[1-(1-methylazetidin-3-yl)azetidin-3-yl]tetrazol-5-yl]methyl]pyrazol-4-yl]pyrazolo[1,5-a]pyrimidine-3-carboxamide; formic acid]
IC50 [1]: 40 nM
IC50 [2]: 47 nM

O=C(Nc1cn(Cc2nnnn2C2CNC2)nc1-c1cc(OC(F)F)ccc1OC(F)F)c1cnn2cccnc12 [Example 12, N-[1-[[1-(azetidin-3-yl)tetrazol-5-yl]methyl]-3-[2,5-bis(difluoromethoxy)phenyl]pyrazol-4-yl]pyrazolo[1,5-a]pyrimidine-3-carboxamide]
IC50 [1]: 31 nM
IC50 [2]: 51 nM

CSc1ccc(OC(F)F)c(-c2nn(Cc3nnn(C4CN(CCCN(C)C)C4)n3)cc2NC(=O)c2cnn3cccnc23)c1 [Example 58, N-[3-[2-(difluoromethoxy)-5-methylsulfanyl-phenyl]-1-[[2-[1-[3-(dimethylamino)propyl]azetidin-3-yl]tetrazol-5-yl]methyl]pyrazol-4-yl]pyrazolo[1,5-a]pyrimidine-3-carboxamide]
IC50 [1]: 57 nM
IC50 [2]: 24 nM

NCCn1nnc(Cn2cc(NC(=O)c3cnn4cccnc34)c(-c3cc(OC(F)F)ccc3OC(F)F)n2)n1 [Example 13, N-[1-[[2-(2-aminoethyl)tetrazol-5-yl]methyl]-3-[2,5-bis(difluoromethoxy)phenyl]pyrazol-4-yl]pyrazolo[1,5-a]pyrimidine-3-carboxamide]
IC50 [1]: 11 nM
IC50 [2]: 10 nM

CN(C)CCN1CC(n2nnc(Cn3cc(NC(=O)c4cnn5cccnc45)c(-c4cc(OC(F)F)ccc4OC(F)F)n3)n2)C1 [Example 21, N-[3-[2,5-bis(difluoromethoxy)phenyl]-1-[[2-[1-[2-(dimethylamino)ethyl]azetidin-3-yl]tetrazol-5-yl]methyl]pyrazol-4-yl]pyrazolo[1,5-a]pyrimidine-3-carboxamide]
IC50 [1]: 15 nM
IC50 [2]: 32 nM

CN(C)CCn1nnnc1Cn1cc(NC(=O)c2cnn3cccnc23)c(-c2cc(OC(F)F)ccc2OC(F)F)n1 [Example 17, N-[3-[2,5-bis(difluoromethoxy)phenyl]-1-[[1-[2-(dimethylamino)ethyl]tetrazol-5-yl]methyl]pyrazol-4-yl]pyrazolo[1,5-a]pyrimidine-3-carboxamide]
IC50 [1]: 19 nM
IC50 [2]: 9.7 nM

CN(C)CCN1CCC(n2nnc(Cn3cc(NC(=O)c4cnn5cccnc45)c(-c4cc(OC(F)F)ccc4OC(F)F)n3)n2)CC1 [Example 61, N-[3-[2,5-bis(difluoromethoxy)phenyl]-1-[[2-[1-[2-(dimethylamino)ethyl]-4-piperidyl]tetrazol-5-yl]methyl]pyrazol-4-yl]pyrazolo[1,5-a]pyrimidine-3-carboxamide]
IC50 [1]: 32 nM
IC50 [2]: 36 nM

CN1CCC(n2nnc(Cn3cc(NC(=O)c4cnn5cccnc45)c(-c4cc(OC(F)F)ccc4OC(F)F)n3)n2)CC1 [Example 22]
IC50 [1]: 19 nM
IC50 [2]: 18 nM

CN(C)CCN1CC(n2nnc(Cn3cc(NC(=O)c4cnn5cccnc45)c(-c4cc(Cl)ccc4OC(F)F)n3)n2)C1 [Example 37, N-[3-[5-chloro-2-(difluoromethoxy)phenyl]-1-[[2-[1-[2-(dimethylamino)ethyl]azetidin-3-yl]tetrazol-5-yl]methyl]pyrazol-4-yl]pyrazolo[1,5-a]pyrimidine-3-carboxamide]
IC50 [1]: 16 nM
IC50 [2]: 16 nM

CN1CC(n2nnc(Cn3cc(NC(=O)c4cnn5cccnc45)c(-c4cc(OC(F)F)ccc4OC(F)F)n3)n2)C1 [Example 10, N-[3-[2,5-bis(difluoromethoxy)phenyl]-1-[[2-(1-methylazetidin-3-yl)tetrazol-5-yl]methyl]pyrazol-4-yl]pyrazolo[1,5-a]pyrimidine-3-carboxamide]
IC50 [1]: 17 nM
IC50 [2]: 5.1 nM

NCCn1nnnc1Cn1cc(NC(=O)c2cnn3cccnc23)c(-c2cc(OC(F)F)ccc2OC(F)F)n1 [Example 14, N-[1-[[1-(2-aminoethyl)tetrazol-5-yl]methyl]-3-[2,5-bis(difluoromethoxy)phenyl]pyrazol-4-yl]pyrazolo[1,5-a]pyrimidine-3-carboxamide]
IC50 [1]: 39 nM
IC50 [2]: 46 nM

CN1CC(n2nnc(Cn3cc(NC(=O)c4cnn5cccnc45)c(-c4cc(C5CC5)ccc4OC(F)F)n3)n2)C1 [Example 23, N-[3-[5-cyclopropyl-2-(difluoromethoxy)phenyl]-1-[[2-(1-methylazetidin-3-yl)tetrazol-5-yl]methyl]pyrazol-4-yl]pyrazolo[1,5-a]pyrimidine-3-carboxamide]
IC50 [1]: 17 nM
IC50 [2]: 8.2 nM

CN(CCN1CC(n2nnc(Cn3cc(NC(=O)c4cnn5cccnc45)c(-c4cc(OC(F)F)ccc4OC(F)F)n3)n2)C1)C(=O)OC(C)(C)C [Example 31, tert-butyl N-[2-[3-[5-[[3-[2,5-bis(difluoromethoxy)phenyl]-4-(pyrazolo[1,5-a]pyrimidine-3-carbonylamino)pyrazol-1-yl]methyl]tetrazol-2-yl]azetidin-1-yl]ethyl]-N-methyl-carbamate]
IC50 [1]: 22 nM
IC50 [2]: 8.6 nM

O=C(Nc1cn(Cc2nnn(C3CNC3)n2)nc1-c1cc(OC(F)F)ccc1OC(F)F)c1cnn2cccnc12 [Example 11, N-[1-[[2-(azetidin-3-yl)tetrazol-5-yl]methyl]-3-[2,5-bis(difluoromethoxy)phenyl]pyrazol-4-yl]pyrazolo[1,5-a]pyrimidine-3-carboxamide]
IC50 [1]: 23 nM
IC50 [2]: 10 nM

CN(C)[C@H]1C[C@H](N2CC(n3nnc(Cn4cc(NC(=O)c5cnn6cccnc56)c(-c5cc(OC(F)F)ccc5OC(F)F)n4)n3)C2)C1 [Example 70, N-[3-[2,5-bis(difluoromethoxy)phenyl]-1-[[2-[1-[3-(dimethylamino)cyclobutyl]azetidin-3-yl]tetrazol-5-yl]methyl]pyrazol-4-yl]pyrazolo[1,5-a]pyrimidine-3-carboxamide]
IC50 [1]: 27 nM
IC50 [2]: 12 nM

O=C(Nc1cn(Cc2nnn(C3CCNCC3)n2)nc1-c1cc(OC(F)F)ccc1OC(F)F)c1cnn2cccnc12 [Example 18, N-[3-[2,5-bis(difluoromethoxy)phenyl]-1-[[2-(4-piperidyl)tetrazol-5-yl]methyl]pyrazol-4-yl]pyrazolo[1,5-a]pyrimidine-3-carboxamide]
IC50 [1]: 35 nM
IC50 [2]: 19 nM

CN(C)CCn1nnc(Cn2cc(NC(=O)c3cnn4cccnc34)c(-c3cc(OC(F)F)ccc3OC(F)F)n2)n1 [Example 16, N-[3-[2,5-bis(difluoromethoxy)phenyl]-1-[[2-[2-(dimethylamino)ethyl]tetrazol-5-yl]methyl]pyrazol-4-yl]pyrazolo[1,5-a]pyrimidine-3-carboxamide]
IC50 [1]: 18 nM
IC50 [2]: 12 nM

CN1CC(n2nnnc2Cn2cc(NC(=O)c3cnn4cccnc34)c(-c3cc(Cl)ccc3OC(F)F)n2)C1 [Example 15, N-[3-[5-chloro-2-(difluoromethoxy)phenyl]-1-[[1-(1-methylazetidin-3-yl)tetrazol-5-yl]methyl]pyrazol-4-yl]pyrazolo[1,5-a]pyrimidine-3-carboxamide]
IC50 [1]: 8.6 nM
IC50 [2]: 7.2 nM
